Data on 26 compounds can be found in patent publication US10513523B2, “Imidazopyrazines and pyrazolopyrimidines and their use as AMPA receptor modulators” (Janssen Pharmaceutica NV, priority 2015, dated 2019).

For this test, the target named is GluA1o-γ8 (GRIA1o-CACNG8 fusion construct; TARP γ8 dependent AMPA receptor) (Homo sapiens (Human), UniProt P42261+Q8WXS5). As to the kind of experiment: Calcium flux assay (FLIPR), inhibition of glutamate response of GluA1o-γ8 channel. It counts as cell-based. The conditions noted are these: HEK293 cells stably expressing GRIA1o-CACNG8 fusion; 15 μM glutamate; pIC50 = negative log of IC50 in molar; read-out: GluR1-γ8 (pIC50) (converted). A digest of the protocol: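 Potency is the midpoint of a four-parameter logistic fit to control-normalized FLIPR calcium responses elicited by 15 μM glutamate. Stable HEK293 cells carried a fused GluA1o-γ8 construct and were preincubated with compound and calcium dye in pH 7.4 HEPES buffer.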
Sequence of GluA1o-γ8 (GRIA1o-CACNG8 fusion construct; TARP γ8 dependent AMPA receptor) (P42261 other isoform, or with tags, fused parts or gaps): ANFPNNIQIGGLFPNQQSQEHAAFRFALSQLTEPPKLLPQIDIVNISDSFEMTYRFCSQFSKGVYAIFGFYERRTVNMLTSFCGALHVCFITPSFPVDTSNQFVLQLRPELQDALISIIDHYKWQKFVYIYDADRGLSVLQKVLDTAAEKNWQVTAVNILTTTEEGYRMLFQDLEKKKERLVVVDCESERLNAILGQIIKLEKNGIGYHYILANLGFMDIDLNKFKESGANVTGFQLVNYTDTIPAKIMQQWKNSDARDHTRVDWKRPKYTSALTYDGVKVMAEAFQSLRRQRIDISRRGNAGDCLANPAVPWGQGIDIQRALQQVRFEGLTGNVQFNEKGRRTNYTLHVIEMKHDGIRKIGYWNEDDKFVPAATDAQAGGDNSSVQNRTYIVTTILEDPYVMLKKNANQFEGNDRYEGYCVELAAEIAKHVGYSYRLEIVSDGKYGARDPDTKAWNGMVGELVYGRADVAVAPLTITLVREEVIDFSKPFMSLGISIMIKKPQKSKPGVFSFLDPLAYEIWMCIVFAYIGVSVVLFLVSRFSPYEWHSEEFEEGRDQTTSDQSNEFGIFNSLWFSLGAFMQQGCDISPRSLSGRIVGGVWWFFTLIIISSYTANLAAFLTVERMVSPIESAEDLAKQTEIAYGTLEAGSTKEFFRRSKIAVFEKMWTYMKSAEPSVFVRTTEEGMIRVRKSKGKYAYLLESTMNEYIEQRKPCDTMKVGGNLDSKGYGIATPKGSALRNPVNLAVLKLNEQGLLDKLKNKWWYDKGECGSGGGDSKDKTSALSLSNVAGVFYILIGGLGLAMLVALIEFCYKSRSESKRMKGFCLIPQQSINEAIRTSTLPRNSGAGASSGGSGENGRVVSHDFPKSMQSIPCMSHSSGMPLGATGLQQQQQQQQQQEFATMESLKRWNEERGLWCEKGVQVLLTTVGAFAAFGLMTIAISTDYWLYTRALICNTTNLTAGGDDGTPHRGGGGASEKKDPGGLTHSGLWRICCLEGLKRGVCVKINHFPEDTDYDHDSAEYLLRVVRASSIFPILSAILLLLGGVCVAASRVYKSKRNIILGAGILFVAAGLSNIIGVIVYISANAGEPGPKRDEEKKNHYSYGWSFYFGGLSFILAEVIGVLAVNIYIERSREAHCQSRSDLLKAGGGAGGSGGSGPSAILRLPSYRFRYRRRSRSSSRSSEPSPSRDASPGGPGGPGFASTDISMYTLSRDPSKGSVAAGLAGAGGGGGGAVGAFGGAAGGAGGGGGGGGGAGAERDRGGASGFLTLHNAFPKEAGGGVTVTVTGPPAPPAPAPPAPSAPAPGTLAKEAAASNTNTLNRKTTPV
Background: A change in cytosolic calcium serves as a functional read-out for many receptors and channels.
Regarding `O=S1(=O)Cc2cc(-c3c(-c4ccc(F)cc4)nc4c(N5CC6(COC6)C5)nccn34)ccc2N1` [Example 108, 5-(2-(4-Fluorophenyl)-8-(2-oxa-6-azaspiro[3.3]heptan-6-yl)imidazo[1,2-a]pyrazin-3-yl)-1,3-dihydrobenzo[c]isothiazole 2,2-dioxide], the IC50 is 15.8 nM.
Then `O=C1CCN(c2nccn3c(-c4ccc5c(c4)CC(=O)N5)c(-c4ccc(F)cc4)nc23)CC1` [Example 109, 5-(2-(4-Fluorophenyl)-8-(4-oxopiperidin-1-yl)imidazo[1,2-a]pyrazin-3-yl)indolin-2-one], with 0.0631 nM.
As for `CN1CCN(c2nccn3c(-c4ccc5c(c4)CC(=O)N5)c(-c4ccc(F)cc4)nc23)CC1=O` [Example 110, 5-(2-(4-fluorophenyl)-8-(4-methyl-3-oxopiperazin-1-yl)imidazo[1,2-a]pyrazin-3-yl)indolin-2-one], the IC50 was 1.26 nM.
Turning to `CC1C(=O)N(C)CCN1c1nccn2c(-c3ccc4c(c3)CC(=O)N4)c(-c3ccc(F)cc3)nc12` (centres unmarked) [Example 111, 5-(8-(2,4-Dimethyl-3-oxopiperazin-1-yl)-2-(4-fluorophenyl)imidazo[1,2-a]pyrazin-3-yl)indolin-2-one], the IC50 is 1.58 nM.
With `CC(C)(C)OC(=O)N1CCN(c2ncc(Br)n3c(-c4ccc5c(c4)CC(=O)N5)c(Cc4ccccc4)nc23)CC1` [Example 112, tert-Butyl 4-(2-benzyl-5-bromo-3-(2-oxoindolin-5-yl)imidazo[1,2-a]pyrazin-8-yl)piperazine-1-carboxylate], the IC50 was 0.794 nM.
Then `CC(=O)N1CCN(c2ncc(Br)n3c(-c4ccc5c(c4)CC(=O)N5)c(Cc4ccccc4)nc23)CC1` [Example 113, 5-(8-(4-Acetylpiperazin-1-yl)-2-benzyl-5-bromoimidazo[1,2-a]pyrazin-3-yl)indolin-2-one], with 0.316 nM; and `CC(=O)N1CCN(c2ncc(C)n3c(-c4ccc5c(c4)CC(=O)N5)c(Cc4ccccc4)nc23)CC1` [Example 114, 5-(8-(4-Acetylpiperazin-1-yl)-2-benzyl-5-methylimidazo[1,2-a]pyrazin-3-yl)indolin-2-one], with 2 nM.
For the compound `O=c1[nH]c2ccc(-c3c(-c4ccc(F)cc4)nc4c(N5CCOCC5)nccn34)cc2o1` [Example 116, 6-(2-(4-Fluorophenyl)-8-morpholinoimidazo[1,2-a]pyrazin-3-yl)benzo[d]oxazol-2(3H)-one], the IC50 is 3.16 nM.
In the case of `O=S1(=O)Cc2cc(-c3c(-c4ccc(F)cc4)nc4c(N5CCOCC5)nccn34)ccc2N1` [Example 117, 5-[2-(4-Fluorophenyl)-8-morpholino-imidazo[1,2-a]pyrazin-3-yl]-1,3-dihydro-2,1-benzothiazole 2,2-dioxide], the IC50 was 3.98 nM.
The value for `O=c1[nH]c2ccc(-c3c(-c4ccc(F)cc4)nc4c(N5CCOCC5)nccn34)cc2s1` [Example 118, 6-[2-(4-Fluorophenyl)-8-morpholino-imidazo[1,2-a]pyrazin-3-yl]-3H-1,3-benzothiazol-2-one] was 0.316 nM.
As for `O=S1(=O)Cc2cc(-c3c(-c4ccc(F)cc4)nc4c(N5CCC(O)CC5)nccn34)ccc2N1` [Example 119, 1-[3-(2,2-Dioxo-1,3-dihydro-2,1-benzothiazol-5-yl)-2-(4-fluorophenyl)imidazo[1,2-a]pyrazin-8-yl]piperidin-4-ol], the IC50 is 3.16 nM.
Then `O=C1NCc2cc(-c3c(-c4ccc(F)cc4)nc4c(N5CCOCC5)nccn34)ccc2N1` [Example 120, 6-[2-(4-Fluorophenyl)-8-morpholino-imidazo[1,2-a]pyrazin-3-yl]-3,4-dihydro-1H-quinazolin-2-one], with 100 nM; and `Nc1nc2cc(-c3c(-c4ccc(F)cc4)nc4c(N5CCOCC5)nccn34)ccc2[nH]1` [Example 121, 5-[2-(4-Fluorophenyl)-8-morpholino-imidazo[1,2-a]pyrazin-3-yl]-1H-benzimidazol-2-amine], with 631 nM.
In the case of `O=C1Nc2ccc(-c3c(-c4ccc(F)cc4)nc4c(N5CCOCC5)nccn34)cc2CO1` [Example 124, 6-[2-(4-fluorophenyl)-8-morpholino-imidazo[1,2-a]pyrazin-3-yl]-1,4-dihydro-3,1-benzoxazin-2-one], the IC50 is 7.94 nM.
Consider `O=c1ccc2cc(-c3c(-c4ccc(F)cc4)nc4c(N5CCOCC5)nccn34)ccc2[nH]1` [Example 125, 6-[2-(4-Fluorophenyl)-8-morpholino-imidazo[1,2-a]pyrazin-3-yl]-1H-quinolin-2-one], for which the IC50 is 39.8 nM.
The value for `Oc1ccc(-c2c(-c3ccc(F)cc3)nc3c(N4CCCC4)nccn23)cc1` [Example 126, 4-[2-(4-Fluorophenyl)-8-pyrrolidin-1-yl-imidazo[1,2-a]pyrazin-3-yl]phenol] was 50.1 nM; that for `CS(=O)(=O)c1nccn2c(-c3ccc4c(c3)CC(=O)N4)c(-c3ccc(F)cc3)nc12` [Example 127, 5-[2-(4-Fluorophenyl)-8-methylsulfonyl-imidazo[1,2-a]pyrazin-3-yl]indolin-2-one] was 398 nM.
With `C[S+]([O-])c1nccn2c(-c3ccc4c(c3)CC(=O)N4)c(-c3ccc(F)cc3)nc12` (centres unmarked) [Example 128, 5-[2-(4-Fluorophenyl)-8-methylsulfinyl-imidazo[1,2-a]pyrazin-3-yl]indolin-2-one], the IC50 was 631 nM.
The value for `CC(C)Oc1nccn2c(-c3ccc4c(c3)CC(=O)N4)c(-c3ccc(F)cc3)nc12` [Example 129, 5-[2-(4-Fluorophenyl)-8-isopropoxy-imidazo[1,2-a]pyrazin-3-yl]indolin-2-one] was 20 nM; that for `CC(=O)N1CC=C(c2nccn3c(-c4ccc(O)cc4)c(-c4ccc(F)cc4)nc23)CC1` [Example 130, 1-[4-[2-(4-Fluorophenyl)-3-(4-hydroxyphenyl)imidazo[1,2-a]pyrazin-8-yl]-3,6-dihydro-2H-pyridin-1-yl]ethanone] was 158 nM; that for `O=C1Cc2cc(-c3c(-c4ccccc4)nc4c(C5=CCOCC5)nccn34)ccc2N1` [Example 131, 5-(8-(3,6-Dihydro-2H-pyran-4-yl)-2-phenylimidazo[1,2-a]pyrazin-3-yl)indolin-2-one] was 7.94 nM.
As for `O=C1Cc2cc(-c3c(-c4ccc(F)cc4)nc4c(F)nccn34)ccc2N1` [Example 132, 5-[8-Fluoro-2-(4-fluorophenyl)imidazo[1,2-a]pyrazin-3-yl]indolin-2-one], the IC50 is 631 nM.
The value for `Cc1nccn2c(-c3ccc4c(c3)CC(=O)N4)c(-c3ccc(F)cc3)nc12` [Example 133, 5-[2-(4-Fluorophenyl)-8-methyl-imidazo[1,2-a]pyrazin-3-yl]indolin-2-one] was 251 nM.
Then `O=C1Cc2cc(-c3c(-c4ccccc4)nc4cnccn34)ccc2N1` [Example 134, 5-(2-Phenylimidazo[1,2-a]pyrazin-3-yl)indolin-2-one], with 158 nM.
The value for `O=C1Cc2cc(-c3c(-c4ccc(F)cc4)nc4cnccn34)ccc2N1` [Example 135, 5-(2-(4-Fluorophenyl)imidazo[1,2-a]pyrazin-3-yl)indolin-2-one] was 100 nM; that for `O=C1Nc2ccc(-c3c(-c4ccc(F)cc4)nc4c(N5CCOCC5)nccn34)cc2C1(F)F` [Example 136, 3,3-Difluoro-5-[2-(4-fluorophenyl)-8-morpholino-imidazo[1,2-a]pyrazin-3-yl]indolin-2-one] was 398 nM.
